# Where a SMILES comes first, the peptide text is derived from it. Bridges are numbered along the chain shown (N, C = ends). [ ]: non-standard residue; d: D form. The star is where a group is joined. hPhe(3-Cl-4-CF3) = N[C@@H](CCc1ccc(C(F)(F)F)c(Cl)c1)C(=O)O; NPrPhe(4-CF3) = CCCN[C@@H](Cc1ccc(C(F)(F)F)cc1)C(=O)O; NMeGly(cPent) = CN[C@H](C(=O)O)C1CCCC1; NMeD = CN[C@@H](CC(=O)O)C(=O)O; NMeL = CN[C@@H](CC(C)C)C(=O)O; Ac5c = NC1(C(=O)O)CCCC1; Aze = O=C(O)[C@@H]1CCN1; Ac4c = NC1(C(=O)O)CCC1; X11 = CC1(C)CCN(*)C1; Sar = CNCC(=O)O
# Legend:
# [1] = target: GDP-bound NRAS wild-type protein (Homo sapiens, UniProt P01111); test: Binding to NRAS by surface plasmon resonance (SPR), KD and KD ratio to KRAS
# Method in brief: (§1)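 Captured GDP-RAS (~100–300 RU) was exposed to increasing compound concentrations, 75 s per step, in running buffer with 10 µM GDP, 10 mM MgCl2 and 4% DMSO at pH 7.4.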
# [2] = test system: human lung cancer strain NCI-H441; format: cell-based
# Method in brief: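 Step one: dispense the test compound in serial DMSO dilutions. Step three: add the reagent and measure […].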
# HRAS wild-type protein = HRAS wild-type protein (Homo sapiens, UniProt P01112); test: Binding to HRAS by surface plasmon resonance (SPR), KD and KD ratio to KRAS
# Method in brief: as §1
# [3] = ratio of the KD value with respect to GDP-bound NRAS wild-type protein to the KD value with respect to KRAS
# [4] = ratio of the KD value with respect to HRAS wild-type protein to the KD value with respect to KRAS
# [5] = ratio of KD for GDP-bound NRAS wild-type protein to KD for KRAS
# [6] = ratio of KD for HRAS wild-type protein to KD for KRAS
# [7] = ratio of KD with respect to GDP-bound NRAS wild-type protein to KD with respect to KRAS
# [8] = ratio of KD with respect to HRAS wild-type protein to KD with respect to KRAS
# Chain of GDP-bound NRAS wild-type protein (P01111 whole entry): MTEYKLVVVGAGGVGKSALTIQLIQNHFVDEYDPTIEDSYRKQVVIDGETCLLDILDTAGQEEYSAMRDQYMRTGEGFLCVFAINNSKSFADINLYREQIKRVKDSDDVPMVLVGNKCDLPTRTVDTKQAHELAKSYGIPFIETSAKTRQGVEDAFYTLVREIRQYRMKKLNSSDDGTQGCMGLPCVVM
# Chain of HRAS wild-type protein (P01112 whole entry): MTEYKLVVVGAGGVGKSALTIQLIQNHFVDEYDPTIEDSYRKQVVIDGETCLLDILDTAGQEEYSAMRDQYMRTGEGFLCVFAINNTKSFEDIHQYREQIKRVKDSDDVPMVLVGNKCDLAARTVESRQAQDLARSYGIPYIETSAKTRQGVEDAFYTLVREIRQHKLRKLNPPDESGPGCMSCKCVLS
SMILES,IC50 [2],"NRAS /KRAS [1, 3]",HRAS /KRAS (HRAS wild-type protein; [4]),"NRAS /KRAS [1, 5]",HRAS /KRAS (HRAS wild-type protein; [6]),further results
CCC[C@H]1C(=O)N[C@@H]([C@@H](C)CC)C(=O)N(C)CC(=O)N(C)[C@H]2CCCCCN(C2=O)[C@@H](Cc2ccc(C(F)(F)F)cc2)C(=O)N(C)CC(=O)N[C@@H](CCc2cc(F)c(C(F)(F)F)c(F)c2)C(=O)N2C[C@H](OCC)C[C@H]2C(=O)NC2(CCC2)C(=O)N(C)[C@@H](C2CCCC2)C(=O)N(C)[C@H](C(=O)N2CCOCC2)CC(=O)N1C [PP0679],40.2 nM,B (a compound having 3 or more and less than 10 is denoted as B),B (a compound having 3 or more and less than 10 is denoted as B),–,–,–
CCC[C@H]1C(=O)N[C@@H](C2CCOCC2)C(=O)N(C)CC(=O)N(C)[C@H]2C/C=C\CCN(C2=O)[C@@H](Cc2ccc(C(F)(F)F)cc2)C(=O)N(C)CC(=O)N[C@@H](CCc2ccc(C(F)(F)F)c(Cl)c2)C(=O)N2C[C@H](OCC)C[C@H]2C(=O)NC2(CC(C)(C)C2)C(=O)N(C)[C@@H](C2CCCC2)C(=O)N(C)[C@H](C(=O)N(C)C)CC(=O)N1C [PP3000],63 nM,–,–,AA (a compound having 20 or more is denoted as AA),A (a compound having 10 or more and less than 20 is denoted as A),–
CCO[C@@H]1C[C@H]2C(=O)NC3(CCC3)C(=O)N(C)[C@@H](C(CC)CC)C(=O)N(C)[C@H](C(=O)N(C)CCOC)CC(=O)N(C)[C@@H](CC)C(=O)N[C@@H]([C@@H](C)CC)C(=O)N(C)CC(=O)N(C)[C@H]3C/C=C\CCN(C3=O)[C@@H](Cc3ccc(C(F)(F)F)cc3)C(=O)N(C)CC(=O)N[C@@H](CCc3cc(F)c(C(F)(F)F)c(F)c3)C(=O)N2C1 [PP1330],79.6 nM,–,–,–,–,"NRAS /KRAS [1, 7]: AA (a compound having 20 or more is denoted as AA); HRAS /KRAS (HRAS wild-type protein; [8]): A (a compound having 10 or more and less than 20 is denoted as A)"
CCC[C@H]1C(=O)N[C@@H]([C@@H](C)CC)C(=O)N(C)CC(=O)N(C)[C@H]2C/C=C\CCN(C2=O)[C@@H](Cc2ccc(C(F)(F)F)cc2)C(=O)N(C)CC(=O)N[C@@H](CCc2ccc3ccn(C)c3c2)C(=O)N2C[C@H](OCC)C[C@H]2C(=O)NC2(CC(C)(C)C2)C(=O)N(C)[C@@H](C2CCCC2)C(=O)N(C)[C@H](C(=O)N(C)C)CC(=O)N1C [PP2901],86.5 nM,–,–,A (a compound having 10 or more and less than 20 is denoted as A),A (a compound having 10 or more and less than 20 is denoted as A),–
CCO[C@@H]1C[C@H]2C(=O)NC3(CCC3)C(=O)N(C)[C@@H](C3CCCC3)C(=O)N(CC)[C@H](C(=O)N3CCOCC3)CC(=O)N(C)[C@@H](CC)C(=O)N[C@@H]([C@@H](C)CC)C(=O)N(C)CC(=O)N(C)[C@H]3CCCCCN(C3=O)[C@@H](Cc3ccc(C(F)(F)F)cc3)C(=O)N(C)CC(=O)N[C@@H](CCc3cc(F)c(C(F)(F)F)c(F)c3)C(=O)N2C1 [PP0944],344 nM,–,–,A (a compound having 10 or more and less than 20 is denoted as A),A (a compound having 10 or more and less than 20 is denoted as A),–
CC[C@H](C)[C@@H]1NC(=O)[C@H](CC(C)C)N(C)C(=O)C[C@@H](C(=O)N2CCOCC2)N(C)C(=O)[C@H](C2CCCC2)N(C)C(=O)C2(CCCC2)NC(=O)[C@@H]2CC(=O)CN2C(=O)[C@H](CCc2cc(F)c(C(F)(F)F)c(F)c2)NC(=O)CN(C)C(=O)[C@H](Cc2ccc(C(F)(F)F)cc2)N2CCCC[C@@H](C2=O)N(C)C(=O)CN(C)C1=O [PP0555],48.5 nM,B (a compound having 3 or more and less than 10 is denoted as B),B (a compound having 3 or more and less than 10 is denoted as B),–,–,–

# The next compounds have a lower IC50 [2] than those just listed; values first:
IC50 [2],SMILES,"NRAS /KRAS [1, 3]",HRAS /KRAS (HRAS wild-type protein; [4]),"NRAS /KRAS [1, 5]",HRAS /KRAS (HRAS wild-type protein; [6]),further results
7.9 nM,CCO[C@@H]1C[C@H]2C(=O)NC3(CCCC3)C(=O)N(C)[C@@H](C3CCCC3)C(=O)N(C)[C@H](C(=O)N(C)C)CC(=O)N(C)[C@@H](CC(C)C)C(=O)N[C@@H]([C@@H](C)CC)C(=O)N(C)CC(=O)N(C)[C@H]3C/C=C\CCN(C3=O)[C@@H](Cc3ccc(C(F)(F)F)cc3)C(=O)N(C)CC(=O)N[C@@H](CCc3ccc(C(F)(F)F)c(Cl)c3)C(=O)N2C1 [PP2838],–,–,AA (a compound having 20 or more is denoted as AA),A (a compound having 10 or more and less than 20 is denoted as A),–
34.4 nM,CCCN1C(=O)CN(C)C(=O)CN(C)C(=O)[C@H]([C@@H](C)CC)NC(=O)[C@H](CC(C)C)N(C)C(=O)C[C@@H](C(=O)N2CCC(C)(C)C2)N(C)C(=O)[C@H](C2CCCC2)N(C)C(=O)C2(CCCC2)NC(=O)[C@@H]2CCCN2C(=O)[C@H](CCc2ccc(C(F)(F)F)c(Cl)c2)NC(=O)CN(C)C(=O)[C@@H]1Cc1ccc(C(F)(F)F)cc1 [PP0177] ([NMeL]I[Sar][Sar][NPrPhe(4-CF3)][Sar][hPhe(3-Cl-4-CF3)]P[Ac5c][NMeGly(cPent)][NMeD]-X11; lactam N-11),–,–,B (a compound having 3 or more and less than 10 is denoted as B),C (A compound having a KD ratio of 0.1 or more and less than 3 is denoted as C),–
19.4 nM,CCO[C@@H]1C[C@H]2C(=O)NC3(CCC3)C(=O)N(C)[C@@H](C(C)(C)C)C(=O)N(C)[C@H](C(=O)N3CCOCC3)CC(=O)N(C)[C@@H](CC(C)C)C(=O)N[C@@H]([C@@H](C)CC)C(=O)N(C)CC(=O)N(C)[C@H]3CCCCN(C3=O)[C@@H](Cc3ccc(C(F)(F)F)cc3)C(=O)N(C)CC(=O)N[C@@H](CCc3cc(F)c(C(F)(F)F)c(F)c3)C(=O)N2C1 [PP0814],–,–,B (a compound having 3 or more and less than 10 is denoted as B),B (a compound having 3 or more and less than 10 is denoted as B),–
15.4 nM,CCC[C@H]1C(=O)N[C@@H]([C@@H](C)CC)C(=O)N(C)CC(=O)N(C)[C@H]2C/C=C\CCN(C2=O)[C@@H](Cc2ccc(C)cc2)C(=O)N(C)CC(=O)N[C@@H](CCc2ccc(C(F)(F)F)c(Cl)c2)C(=O)N2C[C@H](OCC)C[C@H]2C(=O)NC2(CC(C)(C)C2)C(=O)N(C)[C@@H](CC(C)C)C(=O)N(C)[C@H](C(=O)N(C)C)CC(=O)N1C [PP2224],A (a compound having 10 or more and less than 20 is denoted as A),A (a compound having 10 or more and less than 20 is denoted as A),–,–,–
3 nM,CCCOC[C@H]1C(=O)N[C@@H]([C@@H](C)CC)C(=O)N(C)CC(=O)N(C)[C@H]2C/C=C\CCN(C2=O)[C@@H](Cc2ccc(C(F)(F)F)cc2)C(=O)N(C)CC(=O)N[C@@H](CCc2ccc(C(F)(F)F)c(Cl)c2)C(=O)N2C[C@H](OCC)C[C@H]2C(=O)NC2(CC(C)(C)C2)C(=O)N(C)[C@@H](C2CCCC2)C(=O)N(C)[C@H](C(=O)N(C)C)CC(=O)N1C [PP1754],–,–,–,–,NRAS /KRAS ([1]; ratio of KD value for GDP-bound NRAS wild-type protein to KD value for KRAS (SPR)): A (a compound having 10 or more and less than 20 is denoted as A); HRAS /KRAS (HRAS wild-type protein; ratio of KD value for HRAS wild-type protein to KD value for KRAS (SPR)): A (a compound having 10 or more and less than 20 is denoted as A)
22.6 nM,CC[C@H](C)[C@@H]1NC(=O)[C@H](CC(C)C)N(C)C(=O)C[C@@H](C(=O)N(C)C)N(C)C(=O)[C@H](C2CCCC2)N(C)C(=O)C2(CCC2)NC(=O)[C@@H]2CC(F)(F)CN2C(=O)[C@H](CCc2cc(F)c(C(F)(F)F)c(F)c2)NC(=O)CN(C)C(=O)[C@H](Cc2ccc(C(F)(F)F)cc2)N2CCCCC[C@@H](C2=O)N(C)C(=O)CN(C)C1=O [PP0466],B (a compound having 3 or more and less than 10 is denoted as B),B (a compound having 3 or more and less than 10 is denoted as B),–,–,–
13.1 nM,CC[C@H](C)[C@@H]1NC(=O)[C@H](CC)N(C)C(=O)C[C@@H](C(=O)N(C)C)N(C)C(=O)[C@H](C2CCCC2)N(C)C(=O)C2(CC(C)(C)C2)NC(=O)[C@H](CC)N(C)C(=O)[C@H](CCc2cc(F)c(C(F)(F)F)c(F)c2)NC(=O)CN(C)C(=O)[C@H](Cc2ccc(C(F)(F)F)cc2)N2CC/C=C\C[C@@H](C2=O)N(C)C(=O)CN(C)C1=O [PP1935],A (a compound having 10 or more and less than 20 is denoted as A),A (a compound having 10 or more and less than 20 is denoted as A),–,–,–
13.9 nM,CCO[C@@H]1C[C@H]2C(=O)NC3(CCC3)C(=O)N(C)[C@@H](C3CCCC3)C(=O)N(C)[C@H](C(=O)N(C)CCOC)CC(=O)N(C)[C@@H](CC)C(=O)N[C@@H]([C@@H](C)CC)C(=O)N(C)CC(=O)N(C)[C@H]3C/C=C\CCN(C3=O)[C@@H](Cc3ccc(C(F)(F)F)cc3)C(=O)N(C)CC(=O)N[C@@H](CCc3ccc(C(F)(F)F)c(OC)c3)C(=O)N2C1 [PP1321],–,–,–,–,"NRAS /KRAS [1, 7]: A (a compound having 10 or more and less than 20 is denoted as A); HRAS /KRAS (HRAS wild-type protein; [8]): B (a compound having 3 or more and less than 10 is denoted as B)"
3.4 nM,CCCN1C(=O)[C@@H]2CCN2C(=O)CN(C)C(=O)[C@H]([C@@H](C)CC)NC(=O)[C@H](CC(C)C)N(C)C(=O)C[C@@H](C(=O)N(C)C)N(C)C(=O)[C@H](C2CCCC2)N(C)C(=O)C2(CCC2)NC(=O)[C@@H]2CCCN2C(=O)[C@H](CCc2ccc(C(F)(F)F)c(Cl)c2)NC(=O)CN(C)C(=O)[C@@H]1Cc1ccc(C(F)(F)F)cc1 [PP0441] ([NMeL]I[Sar][Aze][NPrPhe(4-CF3)][Sar][hPhe(3-Cl-4-CF3)]P[Ac4c][NMeGly(cPent)][NMeD]-NMe2; lactam N-11),C (A compound having a KD ratio of 0.1 or more and less than 3 is denoted as C),C (A compound having a KD ratio of 0.1 or more and less than 3 is denoted as C),–,–,–

# Source: EP4603105A1, “PHARMACEUTICAL COMPOSITION CONTAINING CYCLIC COMPOUND HAVING SELECTIVE KRAS INHIBITORY EFFECT AGAINST HRAS AND NRAS” (CHUGAI SEIYAKU KABUSHIKI KAISHA, priority 2022, dated 2024)
